Tests used:
DadY (PA5303) = biological target: T1, DadY (PA5303) (Pseudomonas aeruginosa, UniProt Q9HTQ1); assay: semicarbazone competition assay, A248, imine generated by DadA; format: biochemical; conditions: imine made in situ from 7.5 mM D-alanine by 0.5 uM DadA; 5 uM DadY; 10 mM semicarbazide, FAD, ubiquinone-1; pH 8.7, 25 C
T1 sequence (Q9HTQ1 1-117): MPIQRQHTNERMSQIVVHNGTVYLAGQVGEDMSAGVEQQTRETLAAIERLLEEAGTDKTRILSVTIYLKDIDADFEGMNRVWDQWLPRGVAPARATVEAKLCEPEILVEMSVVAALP

DadA = biological target: T2, DadA (Pseudomonas aeruginosa, UniProt Q9HTQ0); assay: semicarbazone formation, A248; format: biochemical; conditions: 7.5 mM D-alanine; 10 mM semicarbazide, 30 uM FAD, 100 uM ubiquinone-1; pH 8.7, 25 C; no DadY
T2 construct: gene dadA1
T2 sequence (Q9HTQ0 1-432): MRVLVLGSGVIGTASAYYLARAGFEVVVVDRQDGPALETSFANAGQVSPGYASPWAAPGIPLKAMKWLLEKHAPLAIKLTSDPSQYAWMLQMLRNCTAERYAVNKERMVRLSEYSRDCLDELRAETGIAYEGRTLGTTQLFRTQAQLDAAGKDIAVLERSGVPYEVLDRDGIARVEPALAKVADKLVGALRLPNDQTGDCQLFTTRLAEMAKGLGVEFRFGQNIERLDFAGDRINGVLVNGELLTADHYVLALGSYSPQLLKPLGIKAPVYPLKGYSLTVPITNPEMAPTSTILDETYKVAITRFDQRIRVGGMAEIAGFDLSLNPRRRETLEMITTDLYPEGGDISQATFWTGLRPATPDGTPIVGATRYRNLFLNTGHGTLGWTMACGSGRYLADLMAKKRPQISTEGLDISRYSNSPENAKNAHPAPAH

SMILES: CC(=N)C(=O)O [imino-alanine]
- semicarbazone competition assay, A248, imine generated by DadA (DadY (PA5303)): DadY could act on the imine derived from D-alanine that was generated by DadA

SMILES: C[C@@H](N)C(=O)O [D-alanine]
- semicarbazone formation, A248 (DadA): When DadA used D-alanine as a substrate and semicarbazide was present, a semicarbazone compound was formed
